Measurements taken from patent US11421001B2, “Template-fixed peptidomimetics” (UNIVERSITAET ZUERICH, priority 2007, dated 2022).

Tests used:
[1] = system: human red blood cells (hRBC); experiment: Hemolysis; format: cell-based; conditions: 100 μM peptide, 20% v/v hRBC, 1 hour at 37° C.; percent hemolysis per method
Protocol: The peptides were tested for their hemolytic activity against human red blood cells (hRBC). Fresh hRBC were washed three times with phosphate buffered saline (PBS) by centrifugation for 10 min at 2000×g. Peptides at a concentration of 100 μM were incubated with 20% v/v hRBC for 1 hour at 37° C. The final erythrocyte concentration was approximately 0.9×10^9 cells per ml. A value of 0% resp. 100% cell lysis was determined by incubation of the hRBC in the presence of PBS alone and respectively 0.1% Triton X-100 in H2O. The samples were centrifuged and the supernatant was 20-fold diluted in PBS buffer and the optical density (OD) of the sample at […] was measured. The 100% lyses value (OD540H2O) gave an OD540 of approximately 1.3-1.8. Percent hemolysis was calculated as follows: (OD540peptide/OD540H2O)×100%.

[2] = system: hematopoietic progenitors (CFU-GM); experiment: Stem cell mobilisation, mice model (CFU-GM); format: in vivo, mouse
From the text: The aim of the study was to evaluate the ability of the compound of Example 1 and Example 2 to mobilize hematopoietic progenitors from mouse bone marrow to peripheral blood using in-vitro hematopoietic colony assays. In humans, accurate information about progenitor cell mobilization is provided by the colony forming unit granulocyte-monocyte (CFU-GM) assay or by determining the abundance of CD34(+) cells by FACS analysis (see ref. 10 below). In mice, CD34 is not a useful marker for stem cells; instead the CFU-GM is more commonly used (see ref. 11 below).
In order to assess the ability of the compounds of Example 1 and Example 2 to mobilize murine stem cells (CFU-GM) C3H/HeJ female mice (Jackson Laboratory) were injected s.c. with 5 mg/k, of the compounds of Example 1 and of Example 2 and as reference AMD3100 (Broxmeyer, et al, J Exp Med 201, 1307-1318), (currently undergoing Phase III clinical trials) for stem cell mobilisation. Peripheral blood samples from 5 animals per test group were collected at each time point and nucleated cell counts performed as standard assays.

[3] = system: CD34(+) hematopoietic cells; experiment: Stem cell mobilisation, monkey model (CD34(+) cells by FACS); format: in vivo, cynomolgus monkeys (Macaca fascicularis); conditions: cynomolgus monkeys, slow bolus i.v. injection
Protocol: An assessment of mobilization of peripheral-blood hematopoietic stem cells in cynomolgus monkeys (Macaca fascicularis) was performed. The compound of Example 1 was administered to 4 monkeys (2 male and 2 female) as a slow bolus i.v. injection over 2 minutes and CD34(+) cells were determined by FACS analysis. Toxicokinetic blood sampling was also performed.

[4] = Plasma stability, rat plasma; format: in vitro ADME; conditions: read-out: Stability rat Plasma t1/2
[5] = 14-day intravenous injection toxicity and toxicokinetic study in mice; format: in vivo, mouse
Protocol: 3.2 Repeated Toxicity Studies in Mice
The toxicity and toxicokinetics of the compound of Example 1 was investigated following daily i.v. injection in the mouse for at least 14 days. Groups of 12 male and 12 female Crl:CD1(ICR) mice received dose preparations containing control article (50 mM sodium dihydrogen orthophosphate buffer containing 0.9% w/v sodium chloride) or 8, 24, or 40 mg/kg/day POL6326 at a dose volume of 5 mL/kg. Satellite groups of 24 animals per sex per group were included at each dose level. Assessment of toxicity was based on mortality, clinical signs, body weights, food consumption, ophthalmic examinations, clinical and anatomic pathology, and toxicokinetic evaluations.

[6] = molecular target: T1, human CXCR4 (Homo sapiens, UniProt P61073); experiment: Ca2+ assay: CXCR4-antagonizing activity; format: cell-based
T1 construct: expressed in transfected cells; host or cells: mouse pre-B cell line 300-19
Protocol: 2.2. Ca^2+− Assay: CXCR4-Antagonizing Activity of the Peptides.
Increases in intracellular calcium were monitored using a Flexstation 384 (Molecular Devices, Sunnyvale, Calif.) to assay the peptides for CXCR4 antagonism in a mouse pre-B cell line 300-19 stably transfected with human CXCR4 [see references 1, 2 and 3, below]. The cells were batch loaded with the Calcium 3 Assay kit (Molecular Devices) in assay buffer (Hanks Balanced salt solution, HBSS, 20 mM HEPES, pH 7.4, 0.1% BSA) for 1 h at room temperature and then 200,000 labeled cells were dispensed into black 96 well assays plates (Costar No. 3603). A 20-fold concentrated solution of peptide in assay buffer was added to the cells and the whole plate was centrifuged to settle the cells to the bottom of the wells. Calcium mobilization induced by 10 nM stromal-derived factor-1 (SDF-1) was measured in the Flexstation 384 (excitation, 485 […]) for 90 seconds. A maximal change in fluorescence response above baseline was used to calculate antagonist activity. The data for dose response curves (antagonist concentration versus % maximum response) were fitted to a four parameter logistic equation using SoftmaxPro 4.6 (Molecular Devices), from which IC50% values were calculated.

[7] = Plasma stability, human plasma; format: in vitro ADME; conditions: read-out: Stability human Plasma t1/2
[8] = Maximum tolerated dose in mice; format: in vivo, mouse; conditions: mouse, i.v.
Protocol: 3.1. Maximum Tolerated Dose in Mice
a) The compound of Example 1, dispersed in Water for Injection or 0.9% physiological saline), was administered, in the preliminary study, by i.v. injection at dose levels of 35, 50, 70, 85, 100, 150, 250 or 500 mg/kg to groups consisting of one male and one female mouse (Crl:CD1(ICR)). In addition, two groups comprising two male and two female mice received dose levels of 90 and 100 mg/kg, respectively, and the 50 mg/kg dose level was repeated in a group comprising one male and one female.
b) Maximum tolerated dose studies (MTD) carried out with the compound of Example 2 using CD1 mice (3 mice/group) and was performed using i.v, ip and sc. administration.

[9] = Cytotoxicity assay (MTT reduction); format: cell-based; conditions: human, HELA cells (Acc57), peptides at 12.5, 25 and 50 μM, trend line, read-out: Cyto-toxicity LC50/GI50 Hela cells
Protocol: The cytotoxicity of the peptides to HELA cells (Acc57) and COS-7 cells (CRL-1651) was determined using the MTT reduction assay [see ref. 6 and 7, below]. Briefly the method was as follows: HELA cells and COS-7 cells were seeded at 7.0×10^3 and, respectively, 4.5×10^3 cells per well and grown in 96-well microtiter plates for 24 hours at 37° C. at 5% CO2. At this point, time zero (Tz) was determined by MTT reduction (see below). The supernatant of the remaining wells was discarded, and fresh medium and the peptides in serial dilutions of 12.5, 25 and 50 μM were pipetted into the wells. Each peptide concentration was assayed in triplicate. Incubation of the cells was continued for 48 hours at 37° C. at 5% CO2. Wells were then washed once with PBS and subsequently 100 μl MTT reagent (0.5 mg/mL in medium RPMI1640 and, respectively, DMEM) was added to the wells. This was incubated at 37° C. for 2 hours and subsequently the medium was aspirated and 100 μl isopropanol was added to each well. The absorbance at 595 nm of the solubilized product was measured (OD595peptide). For each concentration averages were calculated from triplicates. The percentage of growth was calculated as follows: (OD595peptide−OD595Tz−OD595Empty well)/(OD595Tz−OD595Empty well)×100% and was plotted for each peptide concentration. […]

[10] = mouse, 8, 24 or 40 mg/kg/day i.v.

T1 sequence (P61073 whole entry): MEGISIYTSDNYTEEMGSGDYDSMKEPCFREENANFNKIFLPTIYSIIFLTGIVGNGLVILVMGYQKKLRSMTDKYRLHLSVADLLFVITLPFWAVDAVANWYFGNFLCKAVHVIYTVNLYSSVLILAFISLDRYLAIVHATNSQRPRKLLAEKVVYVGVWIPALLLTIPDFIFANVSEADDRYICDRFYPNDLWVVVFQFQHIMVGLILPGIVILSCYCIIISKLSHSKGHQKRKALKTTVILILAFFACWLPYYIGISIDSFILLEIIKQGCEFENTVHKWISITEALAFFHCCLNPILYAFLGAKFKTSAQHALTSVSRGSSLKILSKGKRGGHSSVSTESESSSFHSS

Compound	Hemo-lysis at 100 μM [1]	return of CFU-GM to baseline levels, time post administration ([2]; C3H/HeJ mice, 5 mg/kg s.c.)	time of maximal effect on CFU-GM blood cell numbers ([2]; C3H/HeJ mice, 5 mg/kg s.c.)	dose of peak level increase in release of CFU-GM (dose response) ([2]; mice, follow up dose response study)	duration of mobilisation [3]	mobilization of CD34(+) hematopoietic cells [3]	time of peak level of mobilization [3]	half-life at 10 µM [4]	NOAEL at 14 days ([5]; both sexes, Crl:CD1(ICR), in vivo, iv, mouse, daily i.v. dosing, 14 days, read-out: NOAEL level)	white blood cell and absolute lymphocyte counts ([5]; females given 40 mg/kg/day)	clinical chemistry results [5, 10]	effect on body weight, body weight change, food consumption, ophthalmic observations [5, 10]	test article-related gross lesions [5, 10]	test article-related microscopic lesions [5, 10]	IC50 [6]	half-life at 10 µM [7]	acute minimum lethal intravenous dose level [8]	CC50 at 48 h [9]	effect on CFU-GM blood cell numbers / progenitors over time ([2]; C3H/HeJ mice, 5 mg/kg s.c., compared to control mice)
C[C@@H]1NC(=O)[C@H](Cc2c[nH]cn2)NC(=O)[C@H](Cc2ccc(O)cc2)NC(=O)[C@@H]2CCCN2C(=O)[C@H]2CCCN2C(=O)[C@H](CCCCN)NC(=O)[C@H](CCC(N)=O)NC(=O)[C@H](Cc2ccc(O)cc2)NC(=O)[C@@H]2CSSC[C@H](NC1=O)C(=O)N[C@@H](CO)C(=O)N[C@@H](C)C(=O)N1CCC[C@@H]1C(=O)N[C@@H](CCN)C(=O)N[C@@H](CCCNC(=N)N)C(=O)N[C@@H](Cc1ccc(O)cc1)C(=O)N2 [Example 1]	0.6	6 h	120 min	5 mg/kg	transient	induced mobilization of CD34(+) hematopoietic cells	peak level at two hours	> 4 h	40 mg/kg/day	mildly higher	unaffected	no notable effect	No test article-related gross lesions were recorded	No test article-related microscopic lesions were observed	5.5 nM	> 4 h	exceed 90 mg/kg	> 50000 nM	
c1cc(CN2CCCNCCNCCCNCC2)ccc1CN1CCCNCCNCCCNCC1 [AMD3100, reference compound]																			increase in the frequency and number of progenitors at 30 and 60 minutes
